The values that follow are results of earlier work, collected in patent US20220001014A1 (priority 2020, published 2022).

Where a name gives a salt, the structure may show the parent alone.

Data set [1] has as its target Neprilysin (Homo sapiens, UniProt P08473).
For data set [2], the target named is ACE (Homo sapiens, UniProt P12821).
For data set [3], the target named is T1, Bradykinin B2 (Homo sapiens, UniProt P30411).
T1 construct: host or cells: subjects in vivo (endogenous receptor)
T1 sequence (P30411 1-391): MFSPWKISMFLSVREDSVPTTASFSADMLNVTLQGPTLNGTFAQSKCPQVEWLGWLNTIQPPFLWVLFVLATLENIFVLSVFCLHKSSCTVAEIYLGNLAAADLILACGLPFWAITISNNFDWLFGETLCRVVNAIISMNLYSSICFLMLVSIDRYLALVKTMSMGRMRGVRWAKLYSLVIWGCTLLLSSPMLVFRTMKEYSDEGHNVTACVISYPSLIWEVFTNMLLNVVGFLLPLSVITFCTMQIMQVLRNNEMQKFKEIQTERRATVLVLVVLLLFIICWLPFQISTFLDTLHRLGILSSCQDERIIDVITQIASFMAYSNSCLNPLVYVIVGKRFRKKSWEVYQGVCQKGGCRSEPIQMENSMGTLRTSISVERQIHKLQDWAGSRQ
The following applies: 18 μg/kg/h iv for 6 h; sodium-deplete normotensive and hypertensive subjects.

The conditions of data set [4]: in vivo.
Data set [5] has as its system SARS-COV2. The following applies: recent in vitro studies.
The subject of data set [6] is SARS-CoV. The following applies: mice; dosed at concentrations similar to the clinically achievable concentration in humans; reduced from 100%.
The subject of data set [7] is SARS-CoV. The following applies: lung epithelial cell lines.
The conditions of data set [8]: injection; LPS-induced acute lung injury.

Chain of ACE (P12821 30-1306, species assumed): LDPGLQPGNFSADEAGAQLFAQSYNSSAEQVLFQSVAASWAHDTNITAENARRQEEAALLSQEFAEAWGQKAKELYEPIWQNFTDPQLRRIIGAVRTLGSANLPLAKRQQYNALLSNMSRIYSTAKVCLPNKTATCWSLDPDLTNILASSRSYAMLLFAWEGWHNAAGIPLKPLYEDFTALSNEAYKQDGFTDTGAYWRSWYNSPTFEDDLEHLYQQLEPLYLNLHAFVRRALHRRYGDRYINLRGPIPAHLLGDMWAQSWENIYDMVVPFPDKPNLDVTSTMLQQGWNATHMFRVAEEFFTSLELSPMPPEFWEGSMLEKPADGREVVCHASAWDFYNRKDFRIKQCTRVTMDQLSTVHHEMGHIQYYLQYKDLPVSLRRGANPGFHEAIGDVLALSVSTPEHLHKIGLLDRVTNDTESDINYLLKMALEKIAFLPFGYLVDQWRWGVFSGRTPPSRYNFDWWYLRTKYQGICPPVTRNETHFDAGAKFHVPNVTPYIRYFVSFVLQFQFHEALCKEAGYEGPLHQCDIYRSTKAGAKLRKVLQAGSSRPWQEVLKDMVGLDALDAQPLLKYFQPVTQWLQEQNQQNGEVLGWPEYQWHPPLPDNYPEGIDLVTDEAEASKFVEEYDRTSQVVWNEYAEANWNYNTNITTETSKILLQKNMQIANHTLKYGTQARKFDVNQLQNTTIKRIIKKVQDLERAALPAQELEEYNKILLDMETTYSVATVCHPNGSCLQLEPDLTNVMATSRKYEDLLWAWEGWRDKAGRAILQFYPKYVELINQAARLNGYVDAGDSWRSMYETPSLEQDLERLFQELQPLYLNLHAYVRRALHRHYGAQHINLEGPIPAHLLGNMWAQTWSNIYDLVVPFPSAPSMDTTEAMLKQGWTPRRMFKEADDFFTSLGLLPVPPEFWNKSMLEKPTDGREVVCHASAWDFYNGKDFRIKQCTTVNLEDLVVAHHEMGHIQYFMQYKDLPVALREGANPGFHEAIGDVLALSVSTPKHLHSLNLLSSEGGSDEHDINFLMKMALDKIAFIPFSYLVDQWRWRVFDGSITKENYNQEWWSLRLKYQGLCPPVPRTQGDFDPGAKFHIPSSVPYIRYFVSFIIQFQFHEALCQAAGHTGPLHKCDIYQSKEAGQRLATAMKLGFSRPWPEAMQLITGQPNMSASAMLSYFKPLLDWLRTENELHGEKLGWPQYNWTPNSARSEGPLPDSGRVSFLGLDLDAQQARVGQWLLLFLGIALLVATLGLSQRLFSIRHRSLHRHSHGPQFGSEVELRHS
Chain of Neprilysin (P08473 whole entry, species assumed): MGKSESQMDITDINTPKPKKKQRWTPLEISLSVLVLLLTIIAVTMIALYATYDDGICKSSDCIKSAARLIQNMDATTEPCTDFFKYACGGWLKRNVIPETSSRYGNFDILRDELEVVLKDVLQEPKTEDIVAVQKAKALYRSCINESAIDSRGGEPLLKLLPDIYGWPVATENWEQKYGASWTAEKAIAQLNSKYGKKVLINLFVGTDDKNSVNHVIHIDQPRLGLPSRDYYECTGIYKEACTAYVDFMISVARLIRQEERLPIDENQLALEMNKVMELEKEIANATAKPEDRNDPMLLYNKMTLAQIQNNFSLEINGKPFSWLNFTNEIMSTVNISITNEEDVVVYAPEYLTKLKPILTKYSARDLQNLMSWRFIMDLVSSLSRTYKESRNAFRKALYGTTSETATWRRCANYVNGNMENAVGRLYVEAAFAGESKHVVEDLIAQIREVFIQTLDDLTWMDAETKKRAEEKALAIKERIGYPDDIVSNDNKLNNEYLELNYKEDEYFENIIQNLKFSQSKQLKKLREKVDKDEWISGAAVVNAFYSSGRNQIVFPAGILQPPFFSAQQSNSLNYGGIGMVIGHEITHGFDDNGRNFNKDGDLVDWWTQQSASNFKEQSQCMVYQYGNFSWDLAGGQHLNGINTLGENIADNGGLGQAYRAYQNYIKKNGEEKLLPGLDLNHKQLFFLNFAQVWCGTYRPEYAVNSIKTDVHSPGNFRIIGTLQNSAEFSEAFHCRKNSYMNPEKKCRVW

Consider `CC(=O)SC[C@@H](Cc1ccccc1)C(=O)NCC(=O)OCc1ccccc1` [Ecadotril], for which the Neprilysin inhibition in data set [1] is given as 99%. Moreover, the ACE inhibition in data set [2] is recorded as 23%.

As for `NC(N)=NCCC[C@@H](N)C(=O)N[C@@H](CCCN=C(N)N)C(=O)N1CCC[C@H]1C(=O)N1C[C@H](O)C[C@H]1C(=O)NCC(=O)N[C@@H](Cc1cccs1)C(=O)N[C@@H](CO)C(=O)N1Cc2ccccc2C[C@@H]1C(=O)N1[C@H](C(=O)N[C@@H](CCCN=C(N)N)C(=O)O)C[C@@H]2CCCC[C@@H]21` [Icatibant], the “attenuation of hypotensive effects of acute or chronic valsartan” value in data set [3] was “did not attenuate”.

On to `NCCCC[C@H](N[C@@H](CCc1ccccc1)C(=O)O)C(=O)N1CCC[C@H]1C(=O)O` [Lisinopril], for which the ACE inhibition in data set [2] is recorded as 83%.

`O=C(N[C@H]1CCS[C@H]2CCC[C@@H](C(=O)O)N2C1=O)[C@@H](S)Cc1ccccc1` [Omapatrilat]: in data set [1], the Neprilysin inhibition is given as 53%. The ACE inhibition in data set [2] is on record as over 90%.

In the case of `Cn1c(=O)cc(N2CCC[C@@H](N)C2)n(Cc2ccccc2C#N)c1=O` [alogliptin], in data set [4], the joint pains result is given as “can cause severe joint pains”.

Consider `CN(C)C(=O)COC(=O)Cc1ccc(OC(=O)c2ccc(NC(=N)N)cc2)cc1` [camostat mesylate, Camostat mesylate], for which the “inhibition of SARS-COV2 viral entry” value in data set [5] is listed as “did not fully inhibit”. For the same compound, the “mortality following SARS-CoV infection” value in data set [6] was 30-35%. Besides, the “entry of viruses into host cells” value in data set [7] is given as “left some residual entry of viruses”.

As to `CC#CCn1c(N2CCC[C@@H](N)C2)nc2c1c(=O)n(Cc1nc(C)c3ccccc3n1)c(=O)n2C` [linagliptin], in data set [4], the joint pains result was “can cause severe joint pains”.

With `N[C@@H](CC(=O)N1CCn2c(nnc2C(F)(F)F)C1)Cc1cc(F)c(F)cc1F` [sitagliptin], the joint pains result in data set [4] is reported as “can cause severe joint pains”.

In the case of “rhACE2: rhACE2, injected in LPS-induced acute lung injury”, in data set [8], the “lung injury and inflammation” value is “improved lung injury and inflammation”.
